Results as given in the CheMixHub viscosity set.
± gives the uncertainty stated by the source.

Test: xn = mol fraction of the nth substance listed

CO + CCO
Conditions | viscosity [mPa·s]
293.15 K, 101 kPa, x1 = 0.25 | 1.134 ± 0.014
293.15 K, 101 kPa, x1 = 0.5 | 0.809 ± 0.01
293.15 K, 101 kPa, x1 = 0.75 | 0.69 ± 0.009
293.15 K, 101.3 kPa, x1 = 0.114 | 1.1 ± 0.02
293.15 K, 101.3 kPa, x1 = 0.263 | 0.997 ± 0.014
293.15 K, 101.3 kPa, x1 = 0.501 | 0.849 ± 0.012
293.15 K, 101.3 kPa, x1 = 0.738 | 0.712 ± 0.01
293.15 K, 101.3 kPa, x1 = 0.856 | 0.651 ± 0.009
298.15 K, 101 kPa, x1 = 0.2045 | 0.94 ± 0.024
298.15 K, 101 kPa, x1 = 0.25 | 1.032 ± 0.013
298.15 K, 101 kPa, x1 = 0.3971 | 0.832 ± 0.021
298.15 K, 101 kPa, x1 = 0.5 | 0.747 ± 0.009
298.15 K, 101 kPa, x1 = 0.5962 | 0.729 ± 0.018
298.15 K, 101 kPa, x1 = 0.75 | 0.639 ± 0.008
298.15 K, 101 kPa, x1 = 0.7975 | 0.634 ± 0.016
298.15 K, 101.33 kPa, x1 = 0.0889 | 1.045 ± 0.036
298.15 K, 101.33 kPa, x1 = 0.146 | 1.008 ± 0.034
298.15 K, 101.33 kPa, x1 = 0.2385 | 0.95 ± 0.033
298.15 K, 101.33 kPa, x1 = 0.3311 | 0.896 ± 0.031
298.15 K, 101.33 kPa, x1 = 0.4041 | 0.855 ± 0.03
298.15 K, 101.33 kPa, x1 = 0.5234 | 0.791 ± 0.028
298.15 K, 101.33 kPa, x1 = 0.6076 | 0.747 ± 0.026
298.15 K, 101.33 kPa, x1 = 0.7136 | 0.694 ± 0.025
298.15 K, 101.33 kPa, x1 = 0.8128 | 0.643 ± 0.023
298.15 K, 101.33 kPa, x1 = 0.9156 | 0.594 ± 0.022
303.15 K, 101 kPa, x1 = 0.25 | 0.939 ± 0.012
303.15 K, 101 kPa, x1 = 0.5 | 0.69 ± 0.009
303.15 K, 101 kPa, x1 = 0.75 | 0.594 ± 0.007
308.15 K, 101 kPa, x1 = 0.2045 | 0.791 ± 0.02
308.15 K, 101 kPa, x1 = 0.25 | 0.858 ± 0.011
308.15 K, 101 kPa, x1 = 0.3971 | 0.706 ± 0.018
308.15 K, 101 kPa, x1 = 0.5 | 0.638 ± 0.008
308.15 K, 101 kPa, x1 = 0.5962 | 0.625 ± 0.016
308.15 K, 101 kPa, x1 = 0.75 | 0.552 ± 0.007
308.15 K, 101 kPa, x1 = 0.7975 | 0.548 ± 0.014
313.15 K, 101 kPa, x1 = 0.25 | 0.784 ± 0.01
313.15 K, 101 kPa, x1 = 0.5 | 0.593 ± 0.007
313.15 K, 101 kPa, x1 = 0.75 | 0.515 ± 0.006
313.15 K, 101.3 kPa, x1 = 0.114 | 0.77 ± 0.011
313.15 K, 101.3 kPa, x1 = 0.263 | 0.709 ± 0.01
313.15 K, 101.3 kPa, x1 = 0.501 | 0.615 ± 0.009
313.15 K, 101.3 kPa, x1 = 0.738 | 0.531 ± 0.008
313.15 K, 101.3 kPa, x1 = 0.856 | 0.491 ± 0.007
318.15 K, 101 kPa, x1 = 0.2045 | 0.667 ± 0.017
318.15 K, 101 kPa, x1 = 0.25 | 0.718 ± 0.009
318.15 K, 101 kPa, x1 = 0.3971 | 0.599 ± 0.015
318.15 K, 101 kPa, x1 = 0.5 | 0.551 ± 0.007
318.15 K, 101 kPa, x1 = 0.5962 | 0.531 ± 0.013
318.15 K, 101 kPa, x1 = 0.75 | 0.482 ± 0.006
318.15 K, 101 kPa, x1 = 0.7975 | 0.474 ± 0.012
323.15 K, 101 kPa, x1 = 0.25 | 0.661 ± 0.008
323.15 K, 101 kPa, x1 = 0.5 | 0.513 ± 0.006
323.15 K, 101 kPa, x1 = 0.75 | 0.452 ± 0.006

ClC(Cl)C(Cl)Cl + C1COCCO1
303.15 K, 101.33 kPa
Conditions | viscosity [mPa·s]
x2 = 0.0869 | 1.441 ± 0.01
x2 = 0.1835 | 1.419 ± 0.01
x2 = 0.2833 | 1.392 ± 0.01
x2 = 0.3491 | 1.372 ± 0.0099
x2 = 0.461 | 1.331 ± 0.0096
x2 = 0.5705 | 1.287 ± 0.0093
x2 = 0.6587 | 1.245 ± 0.009
x2 = 0.7613 | 1.198 ± 0.0087
x2 = 0.8189 | 1.169 ± 0.0084
x2 = 0.908 | 1.128 ± 0.0081

CCCCCCN + CCN(CC)CC
viscosity [mPa·s], 101.33 kPa
Conditions | x2 = 0.1014 | x2 = 0.1952 | x2 = 0.3807 | x2 = 0.4897 | x2 = 0.5912 | x2 = 0.7898 | x2 = 0.8946
303.15 K | 0.6552 ± 0.0065 | 0.6088 ± 0.0063 | 0.5322 ± 0.0059 | 0.4934 ± 0.0057 | 0.4613 ± 0.0055 | 0.407 ± 0.0053 | 0.3827 ± 0.0051
313.15 K | 0.5654 ± 0.006 | 0.5278 ± 0.0058 | 0.4639 ± 0.0055 | 0.4323 ± 0.0054 | 0.4027 ± 0.0052 | 0.3627 ± 0.0051 | 0.3436 ± 0.005

COCCOCCOC + C1CCCCC1
viscosity [mPa·s], 101.33 kPa
Conditions | x1 = 0.0981 | x1 = 0.1885 | x1 = 0.2854 | x1 = 0.3996 | x1 = 0.5024 | x1 = 0.6005 | x1 = 0.7027 | x1 = 0.8014 | x1 = 0.898
298.15 K | 0.794 ± 0.01 | 0.765 ± 0.01 | 0.76 ± 0.01 | 0.769 ± 0.01 | 0.785 ± 0.01 | 0.808 ± 0.011 | 0.843 ± 0.011 | 0.882 ± 0.011 | 0.924 ± 0.012
303.15 K | 0.734 ± 0.01 | 0.706 ± 0.009 | 0.702 ± 0.009 | 0.714 ± 0.009 | 0.73 ± 0.01 | 0.751 ± 0.01 | 0.779 ± 0.01 | 0.813 ± 0.011 | 0.851 ± 0.011
308.15 K | 0.677 ± 0.009 | 0.654 ± 0.009 | 0.653 ± 0.009 | 0.65 ± 0.009 | 0.679 ± 0.009 | 0.697 ± 0.009 | 0.725 ± 0.01 | 0.756 ± 0.01 | 0.792 ± 0.01

ClC(Cl)C(Cl)Cl + CCOC(C)=O
303.15 K, 101.3 kPa
Conditions | viscosity [mPa·s]
x2 = 0.15 | 1.358 ± 0.0096
x2 = 0.2009 | 1.306 ± 0.0093
x2 = 0.3141 | 1.18 ± 0.0085
x2 = 0.3963 | 1.08 ± 0.008
x2 = 0.4968 | 0.9507 ± 0.0073
x2 = 0.5996 | 0.8225 ± 0.0066
x2 = 0.7128 | 0.6857 ± 0.006
x2 = 0.8056 | 0.5773 ± 0.0055
x2 = 0.9246 | 0.4625 ± 0.0051

ClC(Cl)C(Cl)Cl + CCCCCCCO
303.15 K, 101 kPa
Conditions | viscosity [mPa·s]
x2 = 0.1082 | 1.677 ± 0.04
x2 = 0.2331 | 1.902 ± 0.041
x2 = 0.3041 | 2.042 ± 0.041
x2 = 0.3446 | 2.126 ± 0.042
x2 = 0.4479 | 2.367 ± 0.042
x2 = 0.5205 | 2.568 ± 0.042
x2 = 0.6548 | 3.047 ± 0.042
x2 = 0.781 | 3.616 ± 0.043
x2 = 0.8562 | 4.014 ± 0.043
x2 = 0.9304 | 4.446 ± 0.042

COCCOCCOC + CCCCCCCCCCCCCC
viscosity [mPa·s], 101.33 kPa
Conditions | x1 = 0.0987 | x1 = 0.2023 | x1 = 0.302 | x1 = 0.4002 | x1 = 0.5033 | x1 = 0.594 | x1 = 0.6981 | x1 = 0.7958 | x1 = 0.8986
298.15 K | 1.835 ± 0.043 | 1.672 ± 0.039 | 1.55 ± 0.037 | 1.448 ± 0.034 | 1.345 ± 0.032 | 1.275 ± 0.031 | 1.187 ± 0.029 | 1.113 ± 0.027 | 1.044 ± 0.026
308.15 K | 1.503 ± 0.036 | 1.38 ± 0.033 | 1.29 ± 0.031 | 1.205 ± 0.029 | 1.122 ± 0.027 | 1.068 ± 0.026 | 0.996 ± 0.025 | 0.938 ± 0.024 | 0.888 ± 0.022
318.15 K | 1.248 ± 0.03 | 1.153 ± 0.028 | 1.07 ± 0.026 | 1.009 ± 0.025 | 0.945 ± 0.024 | 0.902 ± 0.023 | 0.848 ± 0.022 | 0.8 ± 0.021 | 0.76 ± 0.02
